PMC8878047 (Pharmaceutics, 2022)
Like-named read-outs stand apart in the source and are kept apart here.

How the values were obtained:
[1] = tested on: H2O2-induced ROS production; test: H2O2-induced oxidative stress model in zebrafish (DCFH-DA); conditions: 48 h pre-treatment, H2O2 1.0 mM 4 h, H2O2-induced 17,250, control 590
[2] = Procedure: All tests were conducted in the animal experimental center of Guangxi Medical University. Preliminary experiments were needed before starting official tests. […] Groups of mice (n = 10 per group, half male and half female) received different doses of the tested compounds by gavage at the same single dose of drug solution, which was uniformed to be […] (drug solution)/10 g, but containing different concentration of tested drugs. […] We compared these mice with the control group in which the mice were not given drugs, according to the pre-experimental procedure. We closely observed the mice for 6 h after the gavage for signs of toxicity and mortality. As soon as death occurred among the maximum-dose group, we conducted an autopsy and took samples from the main organs for histopathological examination. In addition, we monitored all of the tested mice for 2 weeks to record their weight and mortality.
E. coli [3] = test: Quasi-clinical trial on E. coli-infected AA broilers (drug-mixed feeding); conditions: AA broilers
Procedure: (§1) Then, broilers were randomly and equally divided into five different groups and marked as five groups. […] Note that the daily drug-mixed feeding ratio (g drug/kg feed) was indicated for the first 4 h every day, and unmedicated feed then followed. In addition, E. coli strains for the infection of chicken was supplied as a freeze-dried powder. They were revived and cultured according to the standard procedures. The strain was inoculated into a liquid medium and cultured in a 37 °C incubator for 6–8 h. We detected the concentration of the bacterial liquid to be 2.8 × 10^8 CFU/mL as the pathogenic concentration. Finally, all of the chickens except the healthy control group were intramuscularly injected with 0.5 mL of pathogenic bacteria, and all chickens were fasted for 4 h. After successfully simulating the bacterial infection of the chickens, the drug-mixed feeding chickens were continuously fed for 6 d. During this time, we observed their behavioral habits, mortality, and recovery rates.

[4] = tested on: wild type AB strain zebrafish; conditions: 30 embryos per well
Procedure: Zebrafish were incubated and grown in the Joint Laboratory established by Shandong Rui’ying Pharmaceutical Group (Heze, China) and China Pharmaceutical University. Both the Wild-type AB (Danio rerio) and Tg(mpx:eGFP) zebrafish strains were maintained under the guidance of the standard procedures of The Zebrafish Book. […] Then the zebrafish were allowed to naturally mate and spawn the next morning. The normally born embryos were then collected after 1 h and kept in an incubating system at 28 °C. The 6 hpf (hour post fertilization) embryos were transferred into a 6-well plate exposed to 5 mL of egg water, in which 30 embryos were in each well.

[5] = Pharmacokinetic study in plasma after oral administration (HPLC-MS); conditions: SD rats, plasma, EFX 10 mg/kg, EFX-Ca 12 mg/kg
[6] = tested on: neutrophil cluster aggregation; test: CuSO4-induced inflammation model in Tg(mpx:eGFP) zebrafish; conditions: 10 μM CuSO4 40 min, Tg(mpx:eGFP) 3 dpf
E. coli [7] = test: Quasi-clinical trial on E. coli-infected 817 broilers (drug-mixed feeding); conditions: 817 broilers
Procedure: as §1

[8] = 0.01 μM medicated bath, 120 hpf

With `CCN1CCN(c2cc3c(cc2F)c(=O)c(C(=O)O)cn3C2CC2)CC1` [EFX, enrofloxacin, reference compound] the “Average IOD (integrated optical density) of green fluorescence” value (“Average IOD (integrated optical density)” for short) ([1]; 0.01 μM) was 970 a.u, the “Average IOD (integrated optical density)” value ([1]; 0.1 μM) was 772 a.u and the “Average IOD (integrated optical density)” value ([1]; 1 μM) was 848 a.u. The “Body Weight (g, x¯ ± SD)” value ([2]; 2000 mg/kg single gavage, Day-0) was 18.35 ± 1.87 g, the “Body Weight (g, x¯ ± SD)” value ([2]; 2000 mg/kg single gavage, Day-1) was 20.21 ± 2.06 g and the “Body Weight (g, x¯ ± SD)” value ([2]; 2000 mg/kg single gavage, Day-4) was 25.19 ± 1.81 g. The “Body Weight (g, x¯ ± SD)” value ([2]; 2000 mg/kg single gavage, Day-7) was 28.89 ± 1.99 g, the “Body Weight (g, x¯ ± SD)” value ([2]; 2000 mg/kg single gavage, Day-14) was 36.93 ± 3.07 g and the “Body Weight (g, x¯ ± SD)” value ([2]; 3031 mg/kg single gavage, Day-0) was 18.40 ± 1.78 g. The “Body Weight (g, x¯ ± SD)” value ([2]; 3031 mg/kg single gavage, Day-1) was 19.20 ± 2.18 g, the “Body Weight (g, x¯ ± SD)” value ([2]; 3031 mg/kg single gavage, Day-4) was 24.83 ± 3.08 g and the “Body Weight (g, x¯ ± SD)” value ([2]; 3031 mg/kg single gavage, Day-7) was 29.17 ± 2.51 g. For the same compound, the “Body Weight (g, x¯ ± SD)” value ([2]; 3031 mg/kg single gavage, Day-14) was 33.20 ± 4.46 g, the “Body Weight (g, x¯ ± SD)” value ([2]; 4595 mg/kg single gavage, Day-0) was 18.67 ± 1.05 g and the “Body Weight (g, x¯ ± SD)” value ([2]; 4595 mg/kg single gavage, Day-1) was 19.14 ± 0.96 g. The “Body Weight (g, x¯ ± SD)” value ([2]; 4595 mg/kg single gavage, Day-4) was 23.54 ± 1.44 g, the “Body Weight (g, x¯ ± SD)” value ([2]; 4595 mg/kg single gavage, Day-7) was 28.20 ± 1.52 g and the “Body Weight (g, x¯ ± SD)” value ([2]; 4595 mg/kg single gavage, Day-14) was 33.96 ± 2.53 g. For the same compound, the “Body Weight (g, x¯ ± SD)” value ([2]; 6964 mg/kg single gavage, Day-0) was 18.59 ± 1.34 g, the “Body Weight (g, x¯ ± SD)” value ([2]; 6964 mg/kg single gavage, Day-1) was 19.68 ± 1.06 g and the “Body Weight (g, x¯ ± SD)” value ([2]; 6964 mg/kg single gavage, Day-4) was 23.85 ± 1.88 g. For the same compound, the “Body Weight (g, x¯ ± SD)” value ([2]; 6964 mg/kg single gavage, Day-7) was 27.98 ± 3.40 g, the “Body Weight (g, x¯ ± SD)” value ([2]; 6964 mg/kg single gavage, Day-14) was 36.13 ± 5.35 g and the “Body Weight (g, x¯ ± SD)” value ([2]; 16,000 mg/kg single gavage, Day-0) was 18.86 ± 1.03 g. For the same compound, the “Body Weight (g, x¯ ± SD)” value ([2]; 16,000 mg/kg single gavage, Day-1) was 18.55 ± 1.70 g, the “Body Weight (g, x¯ ± SD)” value ([2]; 16,000 mg/kg single gavage, Day-7) was 24.35 ± 2.63 g and the “Body Weight (g, x¯ ± SD)” value ([2]; 16,000 mg/kg single gavage, Day-14) was 33.20 ± 4.00 g. The “Average Final Weight” value (E. coli [3]; EFX single dosage 11 g + 1.5 kg feed) was 1880 ± 113 g, the “Average Weight Gain” value (E. coli [3]; EFX single dosage 11 g + 1.5 kg feed, Table 7) was 380 and the “Average Increment of Weight” value (E. coli [3]; EFX single dosage 11 g + 1.5 kg feed, Table 8) was 250 g. The “Cure Rate (%)” value (E. coli [3]; EFX single dosage 11 g drug (5% solution) + 1.5 kg feed/4 h, 6 d) was 62%, the “Survival Number” value (E. coli [3]; EFX single dosage 11 g drug (5% solution) + 1.5 kg feed/4 h, 6 d, 50 per group) was 31 and the “statistical death of the tested zebrafish” value (“statistical death” for short) ([4]; 0.01 μM medicated bath, 24 hpf) was 6. For the same compound, the “statistical survival of the tested zebrafish” value (“statistical survival” below) ([4]; 0.01 μM medicated bath, 24 hpf) was 24, the “statistical death” value ([4]; 0.01 μM medicated bath, 48 hpf) was 6 and the “statistical survival” value ([4]; 0.01 μM medicated bath, 48 hpf) was 24. The “statistical death” value ([4]; 0.01 μM medicated bath, 72 hpf) was 6, the “statistical survival” value ([4]; 0.01 μM medicated bath, 72 hpf) was 24 and the “statistical death” value ([4]; 0.01 μM medicated bath, 96 hpf) was 6. The “statistical survival” value ([4]; 0.01 μM medicated bath, 96 hpf) was 24, the “statistical death” value [4, 8] was 6 and the “statistical survival” value [4, 8] was 24. The “statistical death” value ([4]; 0.1 μM medicated bath, 24 hpf) was 4, the “statistical survival” value ([4]; 0.1 μM medicated bath, 24 hpf) was 26 and the “statistical death” value ([4]; 0.1 μM medicated bath, 48 hpf) was 4. For the same compound, the “statistical survival” value ([4]; 0.1 μM medicated bath, 48 hpf) was 26, the “statistical death” value ([4]; 0.1 μM medicated bath, 72 hpf) was 4 and the “statistical survival” value ([4]; 0.1 μM medicated bath, 72 hpf) was 26. The “statistical death” value ([4]; 0.1 μM medicated bath, 96 hpf) was 4, the “statistical survival” value ([4]; 0.1 μM medicated bath, 96 hpf) was 26 and the “statistical death” value ([4]; 0.1 μM medicated bath, 120 hpf) was 4. For the same compound, the “statistical survival” value ([4]; 0.1 μM medicated bath, 120 hpf) was 26, the “statistical death” value ([4]; 1 μM medicated bath, 24 hpf) was 2 and the “statistical survival” value ([4]; 1 μM medicated bath, 24 hpf) was 28. The “statistical death” value ([4]; 1 μM medicated bath, 48 hpf) was 2, the “statistical survival” value ([4]; 1 μM medicated bath, 48 hpf) was 28 and the “statistical death” value ([4]; 1 μM medicated bath, 72 hpf) was 2. For the same compound, the “statistical survival” value ([4]; 1 μM medicated bath, 72 hpf) was 28, the “statistical death” value ([4]; 1 μM medicated bath, 96 hpf) was 2 and the “statistical survival” value ([4]; 1 μM medicated bath, 96 hpf) was 28. For the same compound, the “statistical death” value ([4]; 1 μM medicated bath, 120 hpf) was 2, the “statistical survival” value ([4]; 1 μM medicated bath, 120 hpf) was 28 and the “statistical death” value ([4]; 10 μM medicated bath, 24 hpf) was 2. For the same compound, the “statistical survival” value ([4]; 10 μM medicated bath, 24 hpf) was 28, the “statistical death” value ([4]; 10 μM medicated bath, 48 hpf) was 2 and the “statistical survival” value ([4]; 10 μM medicated bath, 48 hpf) was 28. The “statistical death” value ([4]; 10 μM medicated bath, 72 hpf) was 2, the “statistical survival” value ([4]; 10 μM medicated bath, 72 hpf) was 28 and the “statistical death” value ([4]; 10 μM medicated bath, 96 hpf) was 2. For the same compound, the “statistical survival” value ([4]; 10 μM medicated bath, 96 hpf) was 28, the “statistical death” value ([4]; 10 μM medicated bath, 120 hpf) was 2 and the “statistical survival” value ([4]; 10 μM medicated bath, 120 hpf) was 28. The “statistical death” value ([4]; 20 μM medicated bath, 24 hpf) was 4, the “statistical survival” value ([4]; 20 μM medicated bath, 24 hpf) was 26 and the “statistical death” value ([4]; 20 μM medicated bath, 48 hpf) was 4. The “statistical survival” value ([4]; 20 μM medicated bath, 48 hpf) was 26, the “statistical death” value ([4]; 20 μM medicated bath, 72 hpf) was 4 and the “statistical survival” value ([4]; 20 μM medicated bath, 72 hpf) was 26. The “statistical death” value ([4]; 20 μM medicated bath, 96 hpf) was 4, the “statistical survival” value ([4]; 20 μM medicated bath, 96 hpf) was 26 and the “statistical death” value ([4]; 20 μM medicated bath, 120 hpf) was 4. The “statistical survival” value ([4]; 20 μM medicated bath, 120 hpf) was 26, the Ke [5] was 0.28 and the “t 1/2β” value [5] was 2.43 H. The CuSO4-induced neutrophil aggregation ([6]; 0.1 μM pre-incubation 1 h) was “still maintained obvious clustering status”, the CuSO4-induced neutrophil aggregation ([6]; 1 μM pre-incubation 1 h) was “partial aggregations of the neutrophils could be observed” and the “Average Final Weight” value (E. coli [7]; EFX single dosage 11 g + 0.75 kg feed) was 1030 ± 74 g. For the same compound, the “Average Weight Gain” value (E. coli [7]; EFX single dosage 11 g + 0.75 kg feed, Table 7) was 100, the “Average Increment of Weight” value (E. coli [7]; EFX single dosage 11 g + 0.75 kg feed, Table 8) was 140 g and the “Cure Rate (%)” value (E. coli [7]; EFX single dosage 11 g drug (5% solution) + 0.75 kg feed/4 h, 6 d) was 64%. For the same compound, the “Survival Number” value (E. coli [7]; EFX single dosage 11 g drug (5% solution) + 0.75 kg feed/4 h, 6 d, 50 per group) was 32.
